Measurements taken from ChEMBL document CHEMBL6078652, “Discovery of Sporachelins by Genome Mining of a Micromonospora Strain” (J Nat Prod, 2024).
Calls of active or inactive are those of the source. The calls are words filed in the database; no cut-off is given here.

Experiments:
LX-2 [1] = test: Antifibrotic activity against TGFbeta-1 induced human LX-2 cells assessed as inhibition of TGFB1 mRNA expression incubated for 24 hrs by qRT-PCR analysis; assay type: functional, cell-based; conditions: dose 1-5 µM
LX-2 [2] = test: Cytotoxicity against human LX-2 cells assessed as reduction in cell viability at 200 uM incubated for 24 hrs by CCK-8 assay; assay type: toxicity, cell-based; conditions: lx-2, 24 h
LX-2 [3] = test: Antifibrotic activity against TGFbeta-1 induced human LX-2 cells assessed as inhibition of ACTA2 mRNA expression at 5 uM incubated for 24 hrs by qRT-PCR analysis relative to control; assay type: functional; parameters: scale not given: the % may be the effect or the level left
Enterococcus faecalis = test: Antibacterial activity against Enterococcus faecalis ATCC 33186 assessed as bacterial growth inhibition incubated for 16 hrs in presence of brain heart infusion medium by broth microdilution method; assay type: functional, organism-based
NIH3T3 [4] = test: Antifibrotic activity against TGFbeta-1 induced mouse NIH3T3 cells assessed as decrease in Acta2 mRNA expression at 5 uM incubated for 24 hrs by qRT-PCR analysis relative to control; assay type: functional; parameters: scale not given: the % may be the effect or the level left
NIH3T3 [5] = test: Antifibrotic activity against TGFbeta-1 induced mouse NIH3T3 cells assessed as decrease in Acta2 mRNA expression at 1 uM incubated for 24 hrs by qRT-PCR analysis relative to control; assay type: functional; parameters: scale not given: the % may be the effect or the level left
Staphylococcus aureus [6] = test: Antibacterial activity against Staphylococcus aureus ATCC 33591 assessed as bacterial growth inhibition incubated for 16 hrs in presence of Muller-Hinton medium by broth microdilution method; assay type: functional, organism-based
Bacillus subtilis = test: Antibacterial activity against Bacillus subtilis CPCC 100029 assessed as bacterial growth inhibition incubated for 16 hrs in presence of Muller-Hinton medium by broth microdilution method; assay type: functional, organism-based
LX-2 [7] = test: Antifibrotic activity against TGFbeta-1 induced human LX-2 cells assessed as inhibition of ACTA2 mRNA expression incubated for 24 hrs by qRT-PCR analysis; assay type: functional, cell-based; conditions: dose 1-5 µM
Klebsiella pneumoniae [8] = test: Antibacterial activity against Klebsiella pneumoniae ATCC 700603 assessed as bacterial growth inhibition incubated for 16 hrs in presence of Muller-Hinton medium by broth microdilution method; assay type: functional, organism-based
Klebsiella pneumoniae [9] = test: Antibacterial activity against Klebsiella pneumoniae ATCC 10031 assessed as bacterial growth inhibition incubated for 16 hrs in presence of Muller-Hinton medium by broth microdilution method; assay type: functional, organism-based
Escherichia coli [10] = test: Antibacterial activity against Escherichia coli ATCC 35218 assessed as bacterial growth inhibition incubated for 16 hrs in presence of Muller-Hinton medium by broth microdilution method; assay type: functional, organism-based
Enterococcus faecium = test: Antibacterial activity against Enterococcus faecium 310682 (VRE) assessed as bacterial growth inhibition incubated for 16 hrs in presence of brain heart infusion medium by broth microdilution method; assay type: functional, organism-based
Acinetobacter baumannii [11] = test: Antibacterial activity against Acinetobacter baumannii ATCC 19606 assessed as bacterial growth inhibition incubated for 16 hrs in presence of Muller-Hinton medium by broth microdilution method; assay type: functional, organism-based
LX-2 [12] = test: Antifibrotic activity against TGFbeta-1 induced human LX-2 cells assessed as inhibition of TGFB1 mRNA expression at 5 uM incubated for 24 hrs by qRT-PCR analysis relative to control; assay type: functional; parameters: scale not given: the % may be the effect or the level left
Staphylococcus aureus [13] = test: Antibacterial activity against Staphylococcus aureus ATCC 29213 assessed as bacterial growth inhibition incubated for 16 hrs in presence of Muller-Hinton medium by broth microdilution method; assay type: functional, organism-based
LX-2 [14] = test: Antifibrotic activity against TGFbeta-1 induced human LX-2 cells assessed as inhibition of ACTA2 mRNA expression at 1 uM incubated for 24 hrs by qRT-PCR analysis relative to control; assay type: functional; parameters: scale not given: the % may be the effect or the level left
LX-2 [15] = test: Antifibrotic activity against TGFbeta-1 induced human LX-2 cells assessed as inhibition of COL1A1 mRNA expression incubated for 24 hrs by qRT-PCR analysis; assay type: functional, cell-based; conditions: dose 1-5 µM
NIH3T3 [16] = test: Antifibrotic activity against TGFbeta-1 induced mouse NIH3T3 cells assessed as decrease in COL1A1 mRNA expression at 1 uM incubated for 24 hrs by qRT-PCR analysis relative to control; assay type: functional; parameters: scale not given: the % may be the effect or the level left
Pseudomonas aeruginosa [17] = test: Antibacterial activity against Pseudomonas aeruginosa ATCC 27853 assessed as bacterial growth inhibition incubated for 16 hrs in presence of Muller-Hinton medium by broth microdilution method; assay type: functional, organism-based
Acinetobacter baumannii [18] = test: Antibacterial activity against Acinetobacter baumannii 2799 assessed as bacterial growth inhibition incubated for 16 hrs in presence of Muller-Hinton medium by broth microdilution method; assay type: functional, organism-based
LX-2 [19] = test: Antifibrotic activity against TGFbeta-1 induced human LX-2 cells assessed as inhibition of COL1A1 mRNA expression at 1 uM incubated for 24 hrs by qRT-PCR analysis relative to control; assay type: functional; parameters: scale not given: the % may be the effect or the level left
Pseudomonas aeruginosa [20] = test: Antibacterial activity against Pseudomonas aeruginosa 2774 assessed as bacterial growth inhibition incubated for 16 hrs in presence of Muller-Hinton medium by broth microdilution method; assay type: functional, organism-based
[21] = target: T1, Polyunsaturated fatty acid 5-lipoxygenase (Homo sapiens) (UniProt P09917); test: Inhibition of human 5-LO at 2 uM incubated for 15 mins in presence of ATP by measuring fluorescence intensity relative to control
T1 sequence (whole entry): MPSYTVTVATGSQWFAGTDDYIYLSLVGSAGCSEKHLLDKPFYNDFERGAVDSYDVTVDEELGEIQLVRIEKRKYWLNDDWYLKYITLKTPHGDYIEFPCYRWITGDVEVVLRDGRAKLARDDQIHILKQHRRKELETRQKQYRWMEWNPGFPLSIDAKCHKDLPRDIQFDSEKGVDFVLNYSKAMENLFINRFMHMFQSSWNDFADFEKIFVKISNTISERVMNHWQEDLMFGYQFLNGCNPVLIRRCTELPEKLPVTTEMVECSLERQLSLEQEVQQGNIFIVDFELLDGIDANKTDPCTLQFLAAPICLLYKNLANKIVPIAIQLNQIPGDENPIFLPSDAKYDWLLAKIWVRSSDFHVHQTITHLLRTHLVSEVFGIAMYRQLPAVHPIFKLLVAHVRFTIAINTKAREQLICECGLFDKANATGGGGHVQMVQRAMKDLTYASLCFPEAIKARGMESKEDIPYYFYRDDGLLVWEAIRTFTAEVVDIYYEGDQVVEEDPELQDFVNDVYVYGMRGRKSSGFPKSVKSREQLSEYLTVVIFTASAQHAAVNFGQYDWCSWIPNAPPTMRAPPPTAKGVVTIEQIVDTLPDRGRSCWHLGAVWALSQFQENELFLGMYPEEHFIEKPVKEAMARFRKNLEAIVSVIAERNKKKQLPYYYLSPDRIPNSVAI

LX-2 [22] = test: Antifibrotic activity against TGFbeta-1 induced human LX-2 cells assessed as inhibition of COL1A1 mRNA expression at 5 uM incubated for 24 hrs by qRT-PCR analysis relative to control; assay type: functional; parameters: scale not given: the % may be the effect or the level left
NIH3T3 [23] = test: Antifibrotic activity against TGFbeta-1 induced mouse NIH3T3 cells assessed as decrease in COL1A1 mRNA expression at 5 uM incubated for 24 hrs by qRT-PCR analysis relative to control; assay type: functional; parameters: scale not given: the % may be the effect or the level left
LX-2 [24] = test: Antifibrotic activity against TGFbeta-1 induced human LX-2 cells assessed as inhibition of TGFB1 mRNA expression at 1 uM incubated for 24 hrs by qRT-PCR analysis relative to control; assay type: functional; parameters: scale not given: the % may be the effect or the level left
Escherichia coli [25] = test: Antibacterial activity against Escherichia coli ATCC 25922 assessed as bacterial growth inhibition incubated for 16 hrs in presence of Muller-Hinton medium by broth microdilution method; assay type: functional, organism-based

SMILES	Activity (LX-2 [2])	Activity (LX-2 [3]) [%]	Activity (Enterococcus faecalis)	Activity (NIH3T3 [4]) [%]	Activity (NIH3T3 [5]) [%]	Activity (Staphylococcus aureus [6])	Activity (Bacillus subtilis)	Activity (Klebsiella pneumoniae [8])	Activity (Klebsiella pneumoniae [9])	Activity (Escherichia coli [10])	Activity (Enterococcus faecium)	Activity (Acinetobacter baumannii [11])	Activity (LX-2 [12]) [%]	Activity (Staphylococcus aureus [13])	Activity (LX-2 [14]) [%]	Activity (NIH3T3 [16]) [%]	Activity (Pseudomonas aeruginosa [17])	Activity (Acinetobacter baumannii [18])	Activity (LX-2 [19]) [%]	Activity (Pseudomonas aeruginosa [20])	other results
O=C(Cc1ccc(O)cc1)OC[C@H](CCCCNC(=O)c1cccc(O)c1O)NC(=O)c1cccc(O)c1O	Non-toxic	136	inactive	119	80	inactive	inactive	inactive	inactive	inactive	inactive	inactive	81	inactive	61	46	inactive	inactive	29	inactive	Activity (LX-2 [1]): Dose-dependent-effect; Activity (LX-2 [7]): Dose-dependent-effect; Activity (LX-2 [15]): Dose-dependent-effect; inhibition [21]: 77%; Activity (LX-2 [22]): 81%; Activity (NIH3T3 [23]): 68%; Activity (LX-2 [24]): 50%; Activity (Escherichia coli [25]): inactive
CC(C)C(=O)OC[C@H](CCCCNC(=O)c1cccc(O)c1O)NC(=O)c1cccc(O)c1O	Non-toxic	138	inactive	122	75	inactive	inactive	inactive	inactive	inactive	inactive	inactive	72	inactive	92	44	inactive	inactive	49	inactive	Activity (LX-2 [1]): Dose-dependent-effect; Activity (LX-2 [7]): Dose-dependent-effect; Activity (LX-2 [15]): Dose-dependent-effect; inhibition [21]: 80%; Activity (LX-2 [22]): 93%; Activity (NIH3T3 [23]): 79%; Activity (LX-2 [24]): 65%; Activity (Escherichia coli [25]): inactive
O=C(Cc1ccccc1)OC[C@H](CCCCNC(=O)c1cccc(O)c1O)NC(=O)c1cccc(O)c1O	Non-toxic	139	inactive	124	94	inactive	inactive	inactive	inactive	inactive	inactive	inactive	69	inactive	82	78	inactive	inactive	46	inactive	Activity (LX-2 [1]): Dose-dependent-effect; Activity (LX-2 [7]): Dose-dependent-effect; Activity (LX-2 [15]): Dose-dependent-effect; inhibition [21]: 72%; Activity (LX-2 [22]): 87%; Activity (NIH3T3 [23]): 81%; Activity (LX-2 [24]): 46%; Activity (Escherichia coli [25]): inactive
O=C(Cc1ccccc1)OC[C@H](CCCCNC(=O)c1cccc(O)c1O)NC(=O)c1cccnc1	Non-toxic	68	inactive	55	20	inactive	inactive	inactive	inactive	inactive	inactive	inactive	40	inactive	3.1	7.6	inactive	inactive	-3.5	inactive	inhibition [21]: 66%; Activity (LX-2 [22]): 29%; Activity (NIH3T3 [23]): 31%; Activity (LX-2 [24]): 15%; Activity (Escherichia coli [25]): inactive
